In test [1] the test system is rHPIV3-EGFP. Nature of the test: 7-Day colorimetric neutral red uptake antiviral assay. The class given is cell-based, human parainfluenza type 3 virus. As to conditions: for SI: 7-Day colorimetric neutral red uptake assay, SI = Mean IC50/Mean EC50; for EC50: Homo sapiens, MA104, 168 h. Here is the method: (§1) Ninety-six-well plates were seeded with MA-104 cells and infected with 3.9×10^3 PFU of either the HPIV-3 WT or rHPIV3-EGFP virus in duplicate at an MOI=0.1 in quadruplicate wells. The plates were incubated at 37° C. and on each day, including the day of infection, the cells were stained with 0.034% neutral red for 2 hours at 37° C., washed once with PBS, and the NR extracted with ethanol:Sörenson's citrate buffer for 30 min while rocking at room temperature. Absorbance, at 540 and 405 nm wavelengths, was read with an Opsys MR™ spectrophotometer and Revelation Quicklink software, version 4.24 (both from Dynex Technologies, Chantilly, Va.). The two curves was compared and statistically analyzed by ANOVA.
(§2) Six 96-well plates were seeded with MA-104 cells to evaluate the NR and EGFP assays in parallel. A format was used allowing seven compounds to be tested per plate. Each compound was plated using four 10-fold dilutions in triplicate and starting the concentration at 1000 μg/mL for ribavirin (positive control), and ribamidine; 100 μg/mL for 2-thio-6-azauridine, 3-deazaguanosine, 1-(4-methoxybenzyloxy) adenosine, selenazofurin, and EICAR; 100 μM for CS-978, CS-1164, CS-1196, CS-1227, PSI-0194, PSI-5067, PSI-5095, PSI-5098, PSI-5452, PSI-5449, PSI-5741, PSI-5746, PSI-5747, PSI-5852, and PSI-5990; and 1 μg/mL for DAS181. Compounds that were reconstituted in DMSO were diluted down to working concentrations of 0.5% DMSO and less to eliminate cell toxicity due to the DMSO. Two of the replicates were infected with 3.9×10^3 PFU of rHPIV3-EGFP, at an MOI=0.1, while the remaining replicate served as a toxicity control with no virus added. Three of the plates were incubated at 37° C. for 3 days, after which, the toxicity and cell control cells were stained with NR following the same procedure described earlier. NR fluorescence was measured with the FMax® fluorometer, using the 544 nm excitation and 612 nm emission filters. The untreated virus control and treated, infected cells were washed with PBS, fresh PBS was added, and the fluorescence was measured with the FMax® fluorometer, using the 485 nm excitation and 538 nm emission filters. The other three plates were assayed using the traditional colorimetric NR assay. After incubation for 7 days at 37° C., the cells were stained with NR following the same procedure described earlier. For the NR assay, EC50 and 50% cell inhibitory concentrations (IC50) were calculated by linear regression from percents of untreated, uninfected cell and untreated, infected virus controls. For the EGFP assay, EC50 values were calculated by linear regression using percents of untreated, infected virus controls and IC50 values were also calculated by linear regression using percents of untreated, uninfected cell control. The EC50 and IC50 values for each compound for both assays were compared and statistically analyzed by unpaired, two-tailed Student's t-test. A selectivity index (SI) was calculated for each compound for each assay using the formula: SI=Mean IC50/Mean EC50. Compounds were sorted into positive, SI≧10, and negative, SI<10, categories for the combination of NR and EGFP assays. Using the NR assay as the gold standard, sensitivity, true positives/(true positives+false negatives), and specificity, true negatives/(true negatives+false positives), were calculated.

For test [2], the system named is MA-104 cells. Nature of the test: 7-Day colorimetric neutral red uptake assay, toxicity control (no virus). The class given is cell-based, African green monkey. The conditions noted are these: Chlorocebus sabaeus, MA104, 168 h, uninfected MA-104 cells, mean of three assays ± SD, read-out: IC50 (50% cell inhibitory concentration). Here is the method:
as §1, §2

In test [3] the test system is rHPIV3-EGFP. Briefly: 3-Day EGFP fluorescent antiviral assay. The class given is cell-based, human parainfluenza type 3 virus. The conditions noted are these: for EC50: MA104, 72 h. Here is the method:
as §2

The test system of test [4] is MA-104 cells. Briefly: 3-Day EGFP assay, toxicity control (no virus, NR fluorescence). The class given is cell-based, African green monkey. As to conditions: Chlorocebus sabaeus, MA104, 72 h, 3-Day EGFP fluorescent assay, uninfected MA-104 cells, read-out: IC50 (50% cell inhibitory concentration). The protocol:
as §2

Test [5] concerns HPIV-3 WT. Briefly: Antiviral sensitivity CPE assay (neutral red), HPIV-3 WT. As to conditions: Human respirovirus 3, MA104, 168 h, MA-104 cells, MOI=0.1, 7 days, NR, mean ± SD of three replicates. The class given is cell-based, human parainfluenza type 3 virus. Here is the method:
as §1
(§3) An antiviral CPE assay was used to evaluate the antiviral sensitivity profiles of the HPIV-3 WT and rHPIV3-EGFP viruses. Briefly, three compounds: ribavirin (positive control), 2-thio-6-azauridine, and DAS181, were plated in four 10-fold dilutions in five replicates on 96-well plates seeded with MA-104 cells using starting concentrations of 1000, 100, and 1 μg/mL, respectively. […] Fifty percent effective concentrations (EC50) were calculated by linear regression using percents of untreated, uninfected cell and untreated, infected virus controls. EC50 values were compared and statistically analyzed by the unpaired, two-tailed Student's t-test.

Test [6] concerns rHPIV3-EGFP. Briefly: Antiviral sensitivity CPE assay (neutral red), rHPIV3-EGFP. The class given is cell-based, human parainfluenza type 3 virus. The conditions noted are these: MA104, 168 h. Here is the method:
as §1, §3

Converted amounts (≈) assume the structure as drawn. Where only a bound is given, the exact number is not on record here.

As usually defined, the EC50 is the concentration giving half of the maximal effect.

Turning to `NC(=O)c1c[se]c([C@@H]2O[C@H](CO)[C@@H](O)[C@H]2O)n1` [Selenazofurin, 2-[(2R,3R,4S,5R)-3,4-dihydroxy-5-(hydroxymethyl)oxolan-2-yl]-1,3-selenazole-4-carboxamide], in test [1], the SI amounted to 7 and the EC50 was determined as 4.9 ± 1.4 µg/mL. Also, the IC50 in test [2] was 34 ± 7.2 µg/mL. Further, in test [3], the half-maximal effective concentration (EC50) came out at 3.5 ± 0.1 µg/mL; the SI is greater than 29; the “activity category by SI in the EGFP assay” value is “moderately active (between 10 and 49 moderately active)”. Moreover, the IC50 in test [4] was greater than 100 µg/mL.
For `N=C(N)c1ncn([C@@H]2O[C@H](CO)[C@@H](O)[C@H]2O)n1` [Ribamidine, 1-[(2R,3R,4S,5R)-3,4-dihydroxy-5-(hydroxymethyl)oxolan-2-yl]-1,2,4-triazole-3-carboximidamide], the SI in test [1] was 7; in test [3], greater than 15. Moreover, the EC50 was 57 ± 15 µg/mL in test [1] and 68 ± 2.6 µg/mL in test [3]. The figures for the IC50 in test [2] and in test [4] were 390 ± 20 µg/mL and greater than 1000 µg/mL, respectively. For the same compound, the “activity category by SI in the EGFP assay” value in test [3] was “moderately active (between 10 and 49 moderately active)”.
Regarding `C#Cc1c(C(N)=O)ncn1[C@@H]1O[C@H](CO)[C@@H](O)[C@H]1O` [EICAR, 1-[(2R,3R,4S,5R)-3,4-dihydroxy-5-(hydroxymethyl)oxolan-2-yl]-5-ethynylimidazole-4-carboxamide], the SI is recorded as greater than 120 in test [1] and greater than 280 in test [3]. Further, the 50% effective concentration (EC50) in test [1] was 0.81 ± 0.061 µg/mL; in test [3], 0.35 µg/mL. In addition, the IC50 in test [2] and in test [4] was greater than 100 µg/mL in each case.
With `COc1ccc(COn2cnc3c(ncn3[C@@H]3O[C@H](CO)[C@@H](O)[C@H]3O)c2=N)cc1` [1-(4-methoxybenzyloxy) adenosine], the SI in test [1] and in test [3] was 0 each time. For the same compound, the values for the EC50 in test [1] and in test [3] were greater than 31 µg/mL and greater than 41 µg/mL, respectively. Besides, the IC50 in test [2] turned out to be 31 ± 1.2 µg/mL; in test [4], 41 ± 2.5 µg/mL.
As to `O=c1cnn([C@@H]2O[C@H](CO)[C@@H](O)[C@H]2O)c(=S)[nH]1` [2-Thio-6-azauridine, 2-[(2R,3R,4S,5R)-3,4-Dihydroxy-5-(hydroxymethyl)oxolan-2-yl]-3-sulfanylidene-1,2,4-triazin-5-one], the EC50 stood at 1.1 ± 0.058 µg/mL (≈ 4.21 µM) in test [5], 0.63 ± 0.075 µg/mL (≈ 2.41 µM) in test [6], 0.6 ± 0.095 µg/mL in test [1] and 0.89 ± 0.13 µg/mL in test [3]. The SI in test [1] was 28; in test [3], greater than 110. For the same compound, the IC50 in test [2] was 17 ± 3.5 µg/mL; in test [4], greater than 100 µg/mL.
Take `Nc1cc2c(ncn2[C@@H]2O[C@H](CO)[C@@H](O)[C@H]2O)c(=O)[nH]1` [3-Deazaguanosine, 6-amino-1-[(2R,3R,4S,5R)-3,4-dihydroxy-5-(hydroxymethyl)oxolan-2-yl]-5H-imidazo[4,5-c]pyridin-4-one]: the SI was less than 1 in test [1] and greater than 5 in test [3]. For the same compound, the EC50 in test [1] is greater than 31 µg/mL; in test [3], 21 µg/mL. Further, the IC50 in test [2] is 34 ± 3.5 µg/mL; in test [4], greater than 100 µg/mL.
As to `NC(=O)c1ncn([C@@H]2O[C@H](CO)[C@@H](O)[C@H]2O)n1` [Ribavirin, 1-[(2R,3R,4S,5R)-3,4-dihydroxy-5-(hydroxymethyl)oxolan-2-yl]-1,2,4-triazole-3-carboxamide], the EC50 in test [5] was 35 ± 2.5 µg/mL (≈ 143 µM); in test [6] it was 19 ± 4.9 µg/mL (≈ 77.8 µM); in test [1] it was 20 ± 3.6 µg/mL; in test [3] it was 31 µg/mL. The SI in test [1] was 12; in test [3], greater than 32. The IC50 was 230 ± 92 µg/mL in test [2] and greater than 1000 µg/mL in test [4].

Source of the values: patent publication US20100316991A1, “HUMAN PARAINFLUENZA VIRUS TYPE 3 EXPRESSING THE ENHANCED GREEN FLUORESCENT PROTEIN FOR USE IN HIGH-THROUGHPUT ANTIVIRAL ASSAYS” (priority 2009, published 2010).
